Patent US7705025B2, “Histamine H3 receptor agents, preparation and therapeutic uses” (Eli Lilly and Company, priority 2004, dated 2010)

Target: T1, human histamine 3 receptor (Homo sapiens, UniProt Q9Y5N1)
T1 construct: expressed in transfected cells; membranes
Experiment: H3R binding assay (competitive inhibition SPA, [3H] α methylhistamine)
Conditions: membranes of HEK293 clone H3R8
From the text: The compounds of the present invention can readily be evaluated by using a competitive inhibition Scintillation Proximity Assay (SPA) based on a H3R binding assay using [3H] α methylhistamine as ligand. Stable cell lines, including but not limited to HEK can be transfected with cDNA coding for H3R to prepare membranes used for the binding assay. The technique is illustrated below (Preparation of Histamine Receptor Subtype Membranes) for the histamine receptor subtypes.
cDNA for the human histamine 1 receptor (H1R) was cloned into a mammalian expression vector containing the CMV promoter (pcDNA3.1(+), Invitogen) and transfected into HEK293 cells using the FuGENE Tranfection Reagent (Roche Diagnostics Corporation). Transfected cells were selected using G418 (500 μ/mL). Colonies that survived selection were grown and tested for histamine binding to cells grown in 96-well dishes using a scintillation proximity assay (SPA) based radioligand binding assay. Briefly, cells, representing individual selected clones, were grown as confluent monolayers in 96-well dishes (Costar Clear Bottom Plates, #3632) by seeding wells with 25,000 cells and growing for 48 hours (37° C., 5% CO2). […] Plates were counted in a Wallac Trilux 1450 Microbeta scintillation counter. […]
cDNA for the human histamine 3 receptor was cloned and expressed as described in (A. Preparation H1R membranes), above. […]

T1 sequence (Q9Y5N1 whole entry): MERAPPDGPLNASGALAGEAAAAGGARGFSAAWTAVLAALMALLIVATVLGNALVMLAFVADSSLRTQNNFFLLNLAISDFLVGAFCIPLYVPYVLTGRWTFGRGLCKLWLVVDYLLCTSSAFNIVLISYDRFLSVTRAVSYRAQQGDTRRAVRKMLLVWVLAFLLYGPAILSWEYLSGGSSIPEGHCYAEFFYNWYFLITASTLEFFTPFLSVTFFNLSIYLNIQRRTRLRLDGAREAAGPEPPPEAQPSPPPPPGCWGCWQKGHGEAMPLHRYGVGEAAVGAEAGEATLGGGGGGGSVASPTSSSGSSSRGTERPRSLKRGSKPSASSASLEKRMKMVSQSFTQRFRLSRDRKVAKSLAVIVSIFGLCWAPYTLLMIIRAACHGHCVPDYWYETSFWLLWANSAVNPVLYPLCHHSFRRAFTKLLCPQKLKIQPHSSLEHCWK

Row | SMILES | Ki [nM]
1 | O=C(c1ccc(-c2nc(-c3cccnc3)cs2)cc1)N1CCC[C@H]1CN1CCCC1 | 3.1
2 | O=C(c1ccc(-c2cccs2)nc1)N1CCC[C@H]1CN1CCCC1 | 13.8
